One experiment deals with A53T mice. As to the kind of experiment: Immunohistochemistry of SNpc, A53T mice. Format: in vivo, mouse. The following applies: for mean GABA intensity in GFAP-positive areas: Fig. 4k; for TH-positive neuron counts per hemisphere: Fig. 4l. As to the method: Stereotaxic injections were performed to deliver the AAV-CMV-A53T virus or PBS (control) into the right SNpc (AP, −3.2 mm; ML, −1.3 mm; DV, −4.0 mm from the bregma) of the mice. The injections were administered at a rate of 0.2 μl/min, with a total volume of 1 μl. The procedure was conducted under general anesthesia induced by 1% isoflurane.
The mice were deeply anesthetized with 2% isoflurane and positioned on the operating table. After the abdomen was opened and the heart was exposed, the […] were perfused with saline, followed by 4% paraformaldehyde (PFA) in 0.1 M PBS. The mice were decapitated, and the brains were excised from the skull. Excised brains were postfixed in 4% PFA overnight at 4 °C and dehydrated in 30% sucrose for 48 h. Coronal hippocampal sections were cut at 30 µm thickness with a cryostat and stored in storage solution. For the ALS experiments, lumbar spinal cords (L2–L5) were also carefully dissected and immediately immersed in 4% PFA for postfixation. The sections were fully washed in 0.1 M PBS and incubated for 1 h in blocking solution (0.3% Triton X-100, 2% donkey and goat serum in 0.1 M PBS). Next, a mixture of primary antibodies in the blocking solution was used for immunostaining on a shaker overnight at 4 °C. The sections were washed in PBS three times. After washing, the sections were incubated with the corresponding fluorescent secondary antibodies for 1 h at RT. DAPI staining was performed by adding a DAPI solution (1:2000) during the second washing step. After the washing step was complete, the sections were mounted on cover slides with mounting medium. A series of fluorescence images were obtained with an LSM900 (Zeiss, Germany) confocal microscope or Lattice SIM Elyra 7 (Zeiss, Germany). The 15–22 μm Z stack images in 1–2 μm steps were processed for image analysis, which was performed via the ImageJ (NIH, US) and ZEN digital imaging for light microscopy blue system (Zeiss, Germany) programs. The primary antibodies used were as follows: chicken anti-GFAP (1:500, Millipore, ab5541), rabbit anti-amyloid beta (1:500, Abcam, ab2539), mouse anti-NeuN (1:200, Millipore, ab377), rabbit anti-Hbβ (1:200, Abcam, ab214049), mouse anti-Hbβ (1:200, Santacruz, sc-21757), mouse anti-MAOB (1:200, Santacruz, sc-515354), mouse anti-8-OhdG (1:500, Santacruz, sc-393871), rabbit anti-TH (1:500, Pelfreez, p40101), and mouse anti-TH (1:200, Sigma, T2928). The following secondary antibodies from Jackson were diluted (1:500) in blocking solution: donkey-anti-chicken 405, donkey-anti-chicken 647, donkey-anti-rabbit 488, donkey-anti-rabbit 594, donkey-anti-rabbit 647, donkey-anti-guinea pig 488, donkey-anti-guinea pig 647, donkey-anti-mouse 594, and donkey-anti-mouse 647. Serial confocal sections immunolabeled with GFAP were compiled into a maximal projection to assess the GFAP signal within the hippocampus (Z-stacked images, 15–22 μm Z stack images in 1–2 μm steps of brain sections). Sholl analysis, performed via the ImageJ plugin, automatically generated concentric circles with 10-μm spacing from the nucleus (soma) to the farthest astrocytic process. This analysis quantified the intersections of GFAP-labeled processes within each circle, calculating the ramification index and ending radius, enabling the evaluation of astrocytic hypertrophy and morphological changes, as previously described.[78] In the focal GiD mouse model, NeuN-positive CA1 pyramidal neurons were quantified within a 50 × 50 μm^2 region via ImageJ to determine the number of CA1 pyramidal neurons.
For the SNpc, astrocytes and dopaminergic neurons were analyzed separately. The SNpc region was manually reconstructed using anatomical landmarks and TH or GFAP signals. GFAP-positive astrocyte surfaces were reconstructed with surface details set to 0.6 μm, the diameter of the largest sphere at 2.0 μm, a manual threshold value minimum of 800, and diffusion transparency set to 60%. […]

For a further experiment, the system named is C57BL/6 mice. Briefly: Blood H2O2 measurement after LPS. Format: in vivo, mouse. The following applies: LPS 6 h + KDS12025 3 mg/kg i.p. As to the method:
C57BL/6 mice were intraperitoneally (i.p.) injected with lipopolysaccharide (LPS) and sacrificed at 2, 6, and 24 h post-injection. Blood was collected from the heart using a syringe pre-treated with 0.5 M EGTA to prevent coagulation. Plasma was separated by centrifuging the collected blood at 1,500 × g for 10 min at 4 °C. H2O2 levels in the plasma were quantified using the Amplex Red assay according to the manufacturer’s instructions. The H2O2 levels peaked at 6 h post-LPS injection. Subsequently, KDS12025 (3 mg/kg/day) was intraperitoneally administered concurrently with LPS at the 6 h time point, and plasma H2O2 levels were measured to assess the effect of the compound.

Data on 1 compound can be found in publication PMC12373846, “Hemoglobin as a pseudoperoxidase and drug target for oxidative stress-related diseases” (Signal Transduction and Targeted Therapy, 2025).

Regarding `CNc1ccc(NCCc2ccccc2OC)cc1.Cl` [KDS12025, N^1-(2-methoxyphenethyl)-N^4-methylbenzene-1,4-diamine hydrochloride salt], the “mean intensity of Hbβ in GFAP-positive areas” value came to 46.92±4.141 in the experiment on A53T mice (A53T contra+KDS12025, Fig. 5p) and 34.98±2.564 in the experiment with A53T mice (A53T ipsi+KDS12025, Fig. 5p). Besides, the “mean intensity of Hbβ in TH-positive areas” value in the experiment on A53T mice (A53T contra+KDS12025, Fig. 5q) was 61.58±2.401; in the experiment on A53T mice (A53T ipsi+KDS12025, Fig. 5q), 55.65±3.378. The “mean intensity of GFAP in GFAP-positive area” value was determined as 82.69±4.999 in the experiment with A53T mice (A53T contra+KDS12025, Fig. S12c) and 106.7±3.202 with A53T mice (A53T ipsi+KDS12025, Fig. S12c). Moreover, the “GFAP-positive area in the SNpc” value is 25.28±2.892 in the experiment with A53T mice (A53T contra+KDS, Fig. 4j); 34.18±3.214 in the experiment on A53T mice (A53T ipsi+KDS, Fig. 4j); 37.16±3.6 in the experiment with A53T mice (A53T+shHbβ::CaMKII+KDS12025, Fig. 6r); 42.7±5.05 with A53T mice (A53T+shHbβ::GFAP+KDS12025, Fig. 6r). The “mean GABA intensity in GFAP-positive areas” value with A53T mice (A53T contra+KDS) turned out to be 10.18±1.460; in the experiment on A53T mice (A53T ipsi+KDS) it was 5.531±0.9318. Also, the figures for the “TH-positive neuron counts per hemisphere” value in the experiment with A53T mice (A53T contra+KDS) and with A53T mice (A53T ipsi+KDS) were 23.20±2.685 and 20.96±2.68, respectively. In addition, the “number of TH-positive neurons per hemisphere” value with A53T mice (A53T+shHbβ::CaMKII+KDS12025, Fig. 6s) was 18.5±1.3; in the experiment with A53T mice (A53T+shHbβ::GFAP+KDS12025, Fig. 6s) it was 16.75±2.75. For the same compound, the “plasma H2O2 level (Fig. S20r)” value with C57BL/6 mice is on record as “Control (0.3325±0.02161, n=6), LPS-6hrs (1.295±0.05323, n=6), LPS-6hrs+KDS (0.7847±0.08078, n=6) One-way ANOVA with Tukey's multiple comparisons test, F(2,15) = 70.74, p < 0.001 Control vs. LPS-6hrs, p < 0.001; Control vs. LPS-6hrs+KDS, p < 0.001; LPS-6hrs vs. LPS-6hrs+KDS, p < 0.001”.
